Experimental data as given in patent US8329705B2, “Substituted triazolo-pyrazine compounds” (ArQule, Inc., priority 2009, dated 2012).

Experiments:
FGFR2 (N549H) = molecular target: T1, FGFR2 (N549H) (Homo sapiens, UniProt P21802, N549H); assay: FGFR2 kinase activity assay (fluorescent ELISA); assay type: biochemical; conditions: 30 μM compound
T1 construct: purchased Millipore 14-742
Description: A fluorescent ELISA assay was developed to identify and characterize inhibitors of FGFR2 kinase. This heterogeneous assay utilized a biotinylated peptide with a tyrosine motif as a substrate and an anti-phospho-tyrosine antibody to measure phosphorylation of the substrate. The reaction was initiated by adding a test compound, 37 uM Pyk2 substrate (Midwest Biotech, cat. #MBT2383), 12.5 uM ATP (Roche, cat. #11 140 965 001), and 0.5 uM FGFR2 enzyme (Millipore, cat. #14-742) sequentially to a non-binding polypropylene V-well plate. All reagents were in assay buffer consisting of: 50 mM Tris-HCL, 0.02 mg/mL BSA, 10 mM MgCl2, 0.1 mM Na3VO4, 1 mM EGTA, […], 0.01% NP-40, 2 mM DTT, 10% Glycerol. The reaction was incubated for 60 minutes. As the reaction proceeded, FGFR2 phosphorylated tyrosines in the peptide. The reaction mixture was then moved to a blocked streptavidin coated Nunc Maxisorb plate (coated with 100 ng streptavidin from Pierce (cat #15-124) per well) allowing for the capture of the biotinylated peptide. Peptide was captured for 30 minutes at room temperature, the phosphorylation of peptide continues during this phase. The reaction was stopped by washing the Streptavidin plate 6 times with TBST. Phosphorylated peptide was detected by adding anti-phospho tyrosine antibody (purchased from Cell Signaling, cat. #9411, diluted 1:3000), unbound antibody was removed by washing 6 times with TBST. Secondary detection was performed using Alkaline Phosphatase tagged goat anti-mouse antibody (purchased from Pierce, cat. #31320, diluted 1:4000) for one hour. Unbound secondary antibody was removed by washing 6 times with TBST.
The fluorescent readout was initiated by the addition of Promega Attophos substrate (purchased from Promega; Kit catalog number: S1000, dilution=6 mg/10 mL), which when dephosphorylated by Alkaline phosphatase emitted a fluorescent signal of […] when excited by a signal […]. This reading was done on the Perkin Elmer Envision system. […] The signal was directly proportional to the activity of FGFR2 and compound inhibition of FGFR2 was monitored by a decrease in signal.

DLD-1 cancer cells = assay: MTS assay, DLD-1 cells; assay type: cell-based; set-up: concentration or dose not given beside the values
Description: (§1) Cells were maintained at 37° C., 5% CO2 in DMEM media supplemented with 1% fetal bovine serum, penicillin/streptomycin and fungizone (Invitrogen). Cells were seeded into 96-well tissue culture plates at 3000 per well and cultured at 37° C. for 18 hours. Test compounds were dissolved and diluted to 300× in DMSO then diluted 1:40 in DMEM. Cells were incubated with test compounds for 72 hours followed by incubation with tetrazolium compound (3-(4,5-dimethylthiazol-2-yl)-5-(3-carboxymethoxyphenyl)-2-(4-sulfophenyl)-2H-tetrazolium, inner salt; MTS) and the electron coupling reagent, phenazine methosulfate (PMS) for 4 hours. […] The ability of compounds to inhibit cell growth in this assay is correlated with the reduction of dehydrogenase enzyme activity found in metabolically active cells. The measurement of the absorbance of the formazan was assessed using a Victor (Perkin Elmer) microplate reader at 492 nm. The calculated IC50 value is the concentration of the test compound that causes a 50% decrease in the absorbance. Percent inhibition by representative compounds of the present invention in MDA-MB231 and DLD-1 cancer cells is shown in Table 4.

MDA-MB-231 cancer cells = assay: MTS assay, MDA-MB-231 cells; assay type: cell-based; set-up: concentration or dose not given beside the values
Description: as §1

T1 sequence (P21802 22-821 N549H): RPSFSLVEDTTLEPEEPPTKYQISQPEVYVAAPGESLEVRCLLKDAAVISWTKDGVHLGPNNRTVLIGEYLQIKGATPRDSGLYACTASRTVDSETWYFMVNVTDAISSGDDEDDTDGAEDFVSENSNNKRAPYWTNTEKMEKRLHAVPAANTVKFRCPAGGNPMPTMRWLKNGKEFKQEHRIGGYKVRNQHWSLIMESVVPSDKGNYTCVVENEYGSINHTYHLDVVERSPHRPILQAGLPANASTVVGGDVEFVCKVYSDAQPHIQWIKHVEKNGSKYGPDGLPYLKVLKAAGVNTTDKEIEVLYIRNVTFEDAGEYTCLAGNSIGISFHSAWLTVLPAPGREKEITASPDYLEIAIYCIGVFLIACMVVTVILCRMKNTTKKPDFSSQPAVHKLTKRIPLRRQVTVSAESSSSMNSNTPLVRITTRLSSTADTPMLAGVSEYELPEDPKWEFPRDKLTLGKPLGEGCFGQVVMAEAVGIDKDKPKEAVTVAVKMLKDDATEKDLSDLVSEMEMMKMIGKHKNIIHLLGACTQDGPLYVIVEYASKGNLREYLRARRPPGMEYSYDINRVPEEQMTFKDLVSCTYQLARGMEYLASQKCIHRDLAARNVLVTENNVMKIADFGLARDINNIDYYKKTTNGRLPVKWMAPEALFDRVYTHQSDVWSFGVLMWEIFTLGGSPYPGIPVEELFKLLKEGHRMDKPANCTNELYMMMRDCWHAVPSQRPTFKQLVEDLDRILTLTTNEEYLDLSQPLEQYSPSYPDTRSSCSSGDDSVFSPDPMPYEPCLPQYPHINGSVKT

Compound | inhibition at 30 µM (FGFR2 (N549H)) [%] | DLD-1, MTS, 72 hours (% Inhibition) (DLD-1 cancer cells) [%] | MDA-MB-231, MTS, 72 hours (% inhibition) (MDA-MB-231 cancer cells) [%]
CC(C)OC(=O)Nc1nnc2c(N3CCC(n4c(=O)[nH]c5cc(Cl)ccc54)CC3)nccn12 [Compound 82, isopropyl {8-[4-(5-chloro-2-oxo-2,3-dihydro-1H-benzimidazol-1-yl)piperidin-1-yl][1,2,4]triazolo[4,3-a]pyrazin-3-yl}carbamate] | 65.2 | 97 | 92
CC(C)OC(=O)Nc1nnc2c(N3CCCCC3)nccn12 [Compound 59, isopropyl (8-piperidin-1-yl[1,2,4]triazolo[4,3-a]pyrazin-3-yl)carbamate] | 82.5 | 48 | 53
CCc1ccc(CCNc2nccn3c(NC(=O)OC(C)C)nnc23)cc1 [Compound 62, isopropyl (8-{[2-(4-ethylphenyl)ethyl]amino}[1,2,4]triazolo[4,3-a]pyrazin-3-yl)carbamate] | 74.2 | 93 | 78
COc1ccccc1Nc1nccn2c(NC(=O)OC(C)C)nnc12 [Compound 39, isopropyl {8-[(2-methoxyphenyl)amino][1,2,4]triazolo[4,3-a]pyrazin-3-yl}carbamate] | 78.3 | 97 | 97
CC(C)OC(=O)Nc1nnc2c(NCc3cccc(C(F)(F)F)c3)nccn12 [Compound 81, isopropyl (8-{[3-(trifluoromethyl)benzyl]amino}[1,2,4]triazolo[4,3-a]pyrazin-3-yl)carbamate] | 96.9 | 98 | 99
CC(C)OC(=O)Nc1nnc2c(N(C)c3ccccn3)nccn12 [Compound 53, isopropyl {8-[methyl(pyridin-2-yl)amino][1,2,4]triazolo[4,3-a]pyrazin-3-yl}carbamate] | 68.1 | 96 | 99
CC(C)OC(=O)Nc1nnc2c(NCc3cccc(F)c3)nccn12 [Compound 86, isopropyl {8-[(3-fluorobenzyl)amino][1,2,4]triazolo[4,3-a]pyrazin-3-yl}carbamate] | 88.8 | 97 | 98
CC(C)OC(=O)Nc1nnc2c(Nc3ccc(Br)cc3)nccn12 [Compound 52, isopropyl {8-[(4-bromophenyl)amino][1,2,4]triazolo[4,3-a]pyrazin-3-yl}carbamate] | 95.1 | 97 | 98
Cc1ccccc1Nc1nccn2c(N)nnc12 [Compound 157, N^8-(2-methylphenyl)[1,2,4]triazolo[4,3-a]pyrazine-3,8-diamine] | 54.6 | 97 | 98
COc1ccccc1CNc1nccn2c(NC(=O)OC(C)C)nnc12 [Compound 15, isopropyl {8-[(2-methoxybenzyl)amino][1,2,4]triazolo[4,3-a]pyrazin-3-yl}carbamate] | 51 | 98 | 83
CCN(c1cc(O)ccc1C)c1nccn2c(NC(=O)OC(C)C)nnc12 [Compound 64, isopropyl {8-[ethyl(5-hydroxy-2-methylphenyl)amino][1,2,4]triazolo[4,3-a]pyrazin-3-yl}carbamate] | 57.2 | 26 | 51
Nc1nnc2c(Nc3cc(Cl)ccc3Cl)nccn12 [Compound 160, N^8-(2,5-dichlorophenyl)[1,2,4]triazolo[4,3-a]pyrazine-3,8-diamine] | 68.6 | 53 | 81
COc1ccc(CCNc2nccn3c(N)nnc23)cc1 [Compound 117, N^8-[2-(4-methoxyphenyl)ethyl][1,2,4] triazolo[4,3-a]pyrazine-3,8-diamine] |  | 97 | 99
CC(C)OC(=O)Nc1nnc2c(Nc3ccccc3Cl)nccn12 [Compound 13, isopropyl {8-[(2-chlorophenyl)amino][1,2,4]triazolo[4,3-a]pyrazin-3-yl}carbamate] | 50.5 |  | 
CN(C)c1ccc(Nc2nccn3c(N)nnc23)cc1 [Compound 116, N^8-[4-(dimethylamino)phenyl][1,2,4]triazolo[4,3-a]pyrazine-3,8-diamine] | 50 |  | 
COc1cccc(Nc2nccn3c(NC(=O)OC(C)C)nnc23)c1 [Compound 5] |  | 96 | 98
Cc1ccnc(N(Cc2ccccc2)c2nccn3c(NC(=O)OC(C)C)nnc23)c1 [Compound 8, Isopropyl {8-[benzyl(4-methylpyridin-2-yl)amino][1,2,4]triazolo[4,3-a]pyrazin-3-yl}carbamate] |  | 99 | 94
CC(C)OC(=O)Nc1nnc2c(NCCC3CCCN3C)nccn12 (stereo not drawn) [Compound 21, Isopropyl (8-{[2-(1-methylpyrrolidin-2-yl)ethyl]amino}[1,2,4]triazolo[4,3-a]pyrazin-3-yl)carbamate] |  | 58 | 69
Nc1nnc2c(NCCc3ccccc3)nccn12 [Compound 136, N^8-(2-phenylethyl)[1,2,4]triazolo [4,3-a]pyrazine-3,8-diamine] |  | 97 | 76
COc1ccc(N(C)c2nccn3c(N)nnc23)cc1 [Compound 152, N^8-(4-methoxyphenyl)-N^8-methyl[1,2,4]triazolo[4,3-a]pyrazine-3,8-diamine] | 109 |  | 
CC(C)OC(=O)Nc1nnc2c(NCc3ccccc3Br)nccn12 [Compound 80, isopropyl {8-[(2-bromobenzyl)amino][1,2,4]triazolo[4,3-a]pyrazin-3-yl}carbamate] | 51 |  | 
Cc1cccc(CNc2nccn3c(NC(=O)OC(C)C)nnc23)c1 [Compound 19, isopropyl {8-[(3-methylbenzyl)amino][1,2,4]triazolo[4,3-a]pyrazin-3-yl}carbamate] | 55.2 |  | 
Nc1nnc2c(NCc3ccccc3C(F)(F)F)nccn12 [Compound 143, N^8-[2-(trifluoromethyl)benzyl][1,2,4]triazolo[4,3-a]pyrazine-3,8-diamine] | 73.2 |  | 
Cc1ccc(N(C)c2nccn3c(NC(=O)OC(C)C)nnc23)cc1 [Compound 69, isopropyl {8-[methyl(4-methylphenyl)amino][1,2,4]triazolo[4,3-a]pyrazin-3-yl}carbamate] | 52.8 |  | 
COc1ccc(Nc2nccn3c(NC(=O)OC(C)C)nnc23)c(OC)c1 [Compound 35, isopropyl {8-[(2,4-dimethoxyphenyl)amino][1,2,4]triazolo[4,3-a]pyrazin-3-yl}carbamate] | 57 |  | 
